Assay results published in patent publication EP0300806A1, “Opioid analgesic liposomal delivery-release system” (VESTAR, INC., priority 1987, dated 1989).
Counter-ions that a name gives are not always drawn.

Legend:
[1] = test system: phenylquinone-induced writhing; experiment: phenylquinone-induced writhing assay, analgesia after i.m. injection; type: in vivo, Mice
Description: Duration of analgesia was evaluated using the phenylquinone-induced writhing assay essentially as described by Pircio et al. R.W. Pircio, J.A. Gylys, R.L. Cavanagh, J.P. Buyniski and M.E. Bierwagen, 220 Archives Internationales de Pharmacodynamie et de Therapie, 231-57 (1976). Mice were given intraperitoneal injections of 0.025% (w/v) phenyl-p-quinone in 5% ethanol (2.5 mg/kg). […] The writhing phenomenon has been described by Siegmund et al. E. Siegmund, R. Cadmus, G. Lu, 95 Proceedings of the Society for Experimental Biology and Medicine, 729-31 (1957). Five animals per observer was established as a manageable procedure yielding values which were reproducible and consistent from observer to observer. […]
The dose required for single injection ED₅₀ and ED₁₀₀ of free butorphanol tartrate was determined by administering various doses of free drug intramuscularly 15 minutes prior to the i.p. injections of phenylquinone. […] The ED₅₀ and ED₁₀₀ values determined in this study were compared for agreement with reported literature values and used along with control values as a reference standard for each study. […]
Extended analgesia studies were conducted using no fewer than 50 animals per treatment group. […] The times at which analgesic effect was measured were based on the particular treatment and on the results of the previous bioassays for the treatment group.

[2] = test system: phenylquinone-induced writhing; experiment: tolerance (tachyphylaxis) studies: shift of ED50 of free butorphanol tartrate in the writhing assay after pretreatment; type: in vivo, mice

How did the “effect of higher doses on duration of analgesia” value ([1]; 2 ug, 50 ug and 500 ug dose curves, Fig. 1) turn out when `Oc1ccc2c(c1)C13CCCCC1(O)C(C2)N(CC1CCC1)CC3` (stereo not drawn) [free butorphanol tartrate, butorphanol tartrate] was run?
Its value is “do not provide extended efficacy”.

And the ED50 ([1]; Mus musculus, im, 0.25 h, untreated mice, single i.m. injection of free drug 15 minutes prior to i.p. phenylquinone, read-out: ED₅₀)?
The ED50 was 0.05 mg/kg.

What about the “36 hr. ED₅₀” value ([2]; 5 injections of 100 ug/kg at 3 hr. intervals, second protocol, Fig. 6) of the same molecule?
The value was “suggestive of recovery from tachyphylaxis”.

What about the ED50 ([2]; Mus musculus, im, after four i.m. injections of 50 ul saline at 3 hr. intervals, determined 13 hrs. after start, read-out: ED₅₀ for free butorphanol tartrate after multiple injections of saline) of the same molecule?
Its ED50 is about 0.125 mg/kg.

And the “increase in ED₅₀ values between no treatment animals and multiple injection animals” value ([2]; after 4 injections of the ED₁₀₀ dose at 3 hr. intervals, first protocol, Fig. 2)?
The value was 4-5 fold.

What about the “shift of ED₅₀ relative to its initial value” ([2]; pretreatment with 4 injections of 100 ug/kg, Fig. 4 bottom panel) of the same molecule?
Its value is “approximately 4 times its initial value”.
